From patent US20100016574A1, “2'-Hydroxyl Group-Modified Ribonucleoside Derivatives” (Tokyo Institute of Technology, priority 2006, published 2010)

Assay: Stability / elimination of the 2′-modifying group with tetrabutylammonium fluoride (TLC analysis)
Assay type: physicochemical
Settings: room temperature
Procedure: To the compound (4 mg, 0.01 mmol) synthesized in Example 8 were added 1M tetrabutylammonium fluoride/THF (1 mL), and the reaction was carried out at room temperature for 6 days. […] The compound was thus stable.
To the compound (4 mg, 0.01 mmol) synthesized in Example 5 was added 1 M tetrabutylammonium fluoride/THF (1 mL) for a reaction at room temperature for 10 minutes.
To the compound (6 mg, 0.01 mmol) synthesized in Example 16 was added 1 M tetrabutylammonium fluoride/THF (1 mL), followed by a reaction at room temperature for 2 hours.

Compound: CNC(=O)CCO[C@@H]1[C@H](O)[C@@H](COC(c2ccccc2)(c2ccc(OC)cc2)c2ccc(OC)cc2)O[C@H]1n1ccc(=O)[nH]c1=O [Example 8, 5′-O-(4,4′-Dimethoxytrityl)-2′-O-[2-(N-methylcarbamoyl)ethyl]uridine]
- Stability of 2-(N-methylcarbamoyl)ethyl group to tetrabutylammonium fluoride (1M tetrabutylammonium fluoride/THF, 6 days): No degradation was observed

Compound: COC(=O)CCO[C@@H]1[C@H](O)[C@@H](CO)O[C@H]1n1ccc(=O)[nH]c1=O [Example 5, 2′-O-[2-(Methoxycarbonyl)ethyl]uridine]
- Elimination of 2-methoxycarbonyl group with tetrabutylammonium fluoride (1 M tetrabutylammonium fluoride/THF, 10 minutes): Complete conversion to uridine

Compound: COc1ccc(C(OC[C@H]2O[C@@H](n3ccc(=O)[nH]c3=O)[C@H](OCCC(=O)N(C)C)[C@@H]2O)(c2ccccc2)c2ccc(OC)cc2)cc1 [Example 16, 5′-O-(4,4′-Dimethoxytrityl)-2′-O-[2-(N,N-dimethylcarbamoyl)ethyl]uridine]
- Elimination of 2-(N,N-dimethylcarbamoylethyl) group with tetrabutylammonium fluoride (1 M tetrabutylammonium fluoride/THF, 2 hours): Complete conversion to 5′-O-dimethoxytrityl uridine
